The target in assay [1] is Tyrosine-protein phosphatase non-receptor type 6 (Homo sapiens) (UniProt P29350). The assay is described as follows: Inhibition of recombinant human SHP1 (243 to 541 residues) phosphatase activity expressed in Escherichia coli incubated for 20 mins by spectrophotometric analysis.
The target in assay [2] is T1, Receptor-type tyrosine-protein phosphatase C (Homo sapiens) (UniProt P08575).
T1 sequence (whole entry): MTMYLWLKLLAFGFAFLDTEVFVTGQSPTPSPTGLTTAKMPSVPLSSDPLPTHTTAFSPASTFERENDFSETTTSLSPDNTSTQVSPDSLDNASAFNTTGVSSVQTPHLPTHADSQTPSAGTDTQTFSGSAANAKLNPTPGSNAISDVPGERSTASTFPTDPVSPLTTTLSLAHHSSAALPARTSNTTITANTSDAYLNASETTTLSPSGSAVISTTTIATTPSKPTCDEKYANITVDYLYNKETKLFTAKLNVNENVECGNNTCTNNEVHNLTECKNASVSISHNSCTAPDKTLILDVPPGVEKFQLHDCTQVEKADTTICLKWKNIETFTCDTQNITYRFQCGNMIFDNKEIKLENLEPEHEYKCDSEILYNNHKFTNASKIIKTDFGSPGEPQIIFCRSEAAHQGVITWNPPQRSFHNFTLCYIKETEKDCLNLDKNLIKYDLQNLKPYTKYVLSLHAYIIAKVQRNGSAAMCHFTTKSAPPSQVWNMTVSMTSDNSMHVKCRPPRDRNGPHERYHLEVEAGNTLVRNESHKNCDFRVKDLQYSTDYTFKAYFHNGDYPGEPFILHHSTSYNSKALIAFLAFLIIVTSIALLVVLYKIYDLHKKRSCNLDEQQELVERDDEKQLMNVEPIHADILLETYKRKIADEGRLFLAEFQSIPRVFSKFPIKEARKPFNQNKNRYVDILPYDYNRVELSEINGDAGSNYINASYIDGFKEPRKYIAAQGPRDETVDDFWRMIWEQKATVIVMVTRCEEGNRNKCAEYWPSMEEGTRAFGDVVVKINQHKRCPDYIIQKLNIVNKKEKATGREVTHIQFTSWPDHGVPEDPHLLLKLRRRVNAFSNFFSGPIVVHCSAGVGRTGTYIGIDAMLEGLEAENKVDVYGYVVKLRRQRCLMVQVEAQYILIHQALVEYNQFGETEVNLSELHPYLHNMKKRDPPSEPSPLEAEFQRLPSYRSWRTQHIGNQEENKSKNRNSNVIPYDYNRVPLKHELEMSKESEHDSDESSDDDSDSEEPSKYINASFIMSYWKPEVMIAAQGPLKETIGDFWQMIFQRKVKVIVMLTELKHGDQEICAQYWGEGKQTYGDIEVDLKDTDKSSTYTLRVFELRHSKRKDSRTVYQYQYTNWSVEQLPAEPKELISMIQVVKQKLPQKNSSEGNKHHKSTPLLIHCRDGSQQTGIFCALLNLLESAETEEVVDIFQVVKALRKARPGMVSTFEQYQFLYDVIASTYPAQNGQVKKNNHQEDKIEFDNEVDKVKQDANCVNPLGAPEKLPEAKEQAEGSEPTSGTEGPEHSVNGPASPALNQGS
Put plainly: Inhibition of recombinant human CD45 (604 to 1304 residues) phosphatase activity expressed in baculovirus infected Sf9 incubated for 20 mins by spectrophotometric analysis.

Assay [3] deals with T2, Ubiquitin-associated and SH3 domain-containing protein A (Homo sapiens) (UniProt P57075).
T2 sequence (whole entry): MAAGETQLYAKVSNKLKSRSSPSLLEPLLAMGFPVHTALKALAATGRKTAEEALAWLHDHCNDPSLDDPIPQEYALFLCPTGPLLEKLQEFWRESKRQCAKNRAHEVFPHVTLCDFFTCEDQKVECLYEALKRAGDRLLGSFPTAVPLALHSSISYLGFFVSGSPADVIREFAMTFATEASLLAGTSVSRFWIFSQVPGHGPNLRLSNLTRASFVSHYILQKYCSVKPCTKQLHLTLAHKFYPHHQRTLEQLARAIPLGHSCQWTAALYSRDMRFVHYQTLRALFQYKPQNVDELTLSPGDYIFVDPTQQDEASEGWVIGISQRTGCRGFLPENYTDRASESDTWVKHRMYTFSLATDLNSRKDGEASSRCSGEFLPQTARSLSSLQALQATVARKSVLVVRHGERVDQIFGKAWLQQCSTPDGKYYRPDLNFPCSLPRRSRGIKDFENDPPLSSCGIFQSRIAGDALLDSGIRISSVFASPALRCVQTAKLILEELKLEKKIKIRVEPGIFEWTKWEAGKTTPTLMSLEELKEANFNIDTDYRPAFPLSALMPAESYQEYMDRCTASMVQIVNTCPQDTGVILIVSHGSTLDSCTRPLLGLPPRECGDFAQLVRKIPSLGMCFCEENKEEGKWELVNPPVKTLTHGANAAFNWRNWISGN
Put plainly: Inhibition of human STS-2 HP domain (396 to 657 residues) phosphatase activity expressed in Escherichia coli BL21 (DE3) incubated for 20 mins by spectrophotometric analysis.

For the next assay, the species on record is Homo sapiens. Put plainly: Inhibition of recombinant STS-1 W505L mutant HP domain (unknown origin).
For assay [4], the target named is T3, Tyrosine-protein phosphatase non-receptor type 1 (Homo sapiens) (UniProt P18031).
T3 sequence (whole entry): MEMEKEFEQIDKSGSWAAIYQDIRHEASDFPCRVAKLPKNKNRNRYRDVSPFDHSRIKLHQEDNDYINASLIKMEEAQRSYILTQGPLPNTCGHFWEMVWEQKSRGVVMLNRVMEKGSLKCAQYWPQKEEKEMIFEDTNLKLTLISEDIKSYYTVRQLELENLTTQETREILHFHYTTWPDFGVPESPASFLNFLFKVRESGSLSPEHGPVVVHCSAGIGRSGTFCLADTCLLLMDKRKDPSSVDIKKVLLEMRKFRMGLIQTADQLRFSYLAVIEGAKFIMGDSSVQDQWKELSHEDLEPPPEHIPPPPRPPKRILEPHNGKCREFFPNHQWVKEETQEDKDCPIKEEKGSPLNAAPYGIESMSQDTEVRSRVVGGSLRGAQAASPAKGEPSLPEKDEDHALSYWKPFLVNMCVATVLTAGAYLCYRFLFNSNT
Put plainly: Inhibition of recombinant human PTP-1B (1 to 321 residues) phosphatase activity expressed in Escherichia coli incubated for 20 mins by spectrophotometric analysis.

Active and inactive are the calls of the source. No cut-off for these calls is given here.

Chain of Tyrosine-protein phosphatase non-receptor type 6 (Homo sapiens) (P29350 whole entry, the tested form may be a part): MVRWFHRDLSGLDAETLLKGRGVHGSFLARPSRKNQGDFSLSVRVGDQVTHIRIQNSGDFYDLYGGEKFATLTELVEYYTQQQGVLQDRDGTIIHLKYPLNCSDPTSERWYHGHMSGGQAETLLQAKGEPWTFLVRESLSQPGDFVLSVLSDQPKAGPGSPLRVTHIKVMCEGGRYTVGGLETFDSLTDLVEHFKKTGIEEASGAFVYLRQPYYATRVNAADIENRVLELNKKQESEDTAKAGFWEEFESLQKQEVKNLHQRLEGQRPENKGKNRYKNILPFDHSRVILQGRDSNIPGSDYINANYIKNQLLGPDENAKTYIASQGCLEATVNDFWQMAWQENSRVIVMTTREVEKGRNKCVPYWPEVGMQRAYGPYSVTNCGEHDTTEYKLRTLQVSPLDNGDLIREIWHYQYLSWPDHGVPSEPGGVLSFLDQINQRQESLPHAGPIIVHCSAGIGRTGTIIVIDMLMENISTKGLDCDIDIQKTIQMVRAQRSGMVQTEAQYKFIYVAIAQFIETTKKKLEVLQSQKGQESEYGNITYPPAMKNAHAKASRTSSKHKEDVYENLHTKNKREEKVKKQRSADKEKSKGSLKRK

For `O=C(NC(Cc1cc(=O)[nH]c2ccccc12)C(=O)O)c1ccc(Cl)cc1` (stereo not given), the inhibition result (in assay [1]; in assay [2]; in the assay listed under Homo sapiens; in assay [4]) was “inactive” throughout. Moreover, in assay [3], the inhibition entry is “Active”.

Values taken from ChEMBL document CHEMBL5537191, “Rebamipide and Derivatives are Potent, Selective Inhibitors of Histidine Phosphatase Activity of the Suppressor of T Cell Receptor Signaling Proteins” (J Med Chem, 2024).
